Reference: PubChem BioAssay (NCI)
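Method: 48-hour compound exposure of cells in 96-well plates, five concentrations, linear interpolation of endpoints. TGI is the concentration that stops growth completely.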 Where a SMILES comes first, the peptide text is derived from it. [ ]: non-standard residue; d: D form. The star is where a group is joined. ξ: configuration not given here. NMeY = CN[C@@H](Cc1ccc(O)cc1)C(=O)O; Cbz = O=C(OCc1ccccc1)*; ξA = CC(N)C(=O)O

Assays:
Test in all cases: DTP human tumour cell line panel, 48 h
[1] = tested on: BT-549 breast
[2] = tested on: CCRF-CEM leukemia
[3] = tested on: HL-60(TB) leukemia
[4] = tested on: MDA-MB-435
[5] = tested on: SK-MEL-2 melanoma
[6] = tested on: SK-MEL-28 melanoma
[7] = tested on: SK-OV-3 ovarian
[8] = tested on: SNB-19 CNS
[9] = tested on: U251 CNS
[10] = tested on: NCI-H460 lung

Row | SMILES | TGI [1] [µM] | TGI [2] [µM] | TGI [3] [µM] | TGI [4] [µM] | TGI [5] [µM] | TGI [6] [µM] | TGI [7] [µM] | TGI [8] [µM] | TGI [9] [µM] | TGI [10] [µM]
1 | N#CCCC1(CCC#N)S(=O)(=O)OCCOS1(=O)=O | > 100 | > 100 | 69.4 | > 100 | > 100 | > 100 | > 100 | > 100 | > 100 | 
2 | COc1ccc2nc3c4c(nccc4c2c1)-c1ncccc1C3=O | 0.528 | 2.57 | 0.165 | 0.148 | 1.43 | 0.655 | 0.386 | 0.279 | 1.75 | 0.119
3 | O=c1[nH][nH]c(=O)n1Cc1ccccc1 | > 100 | > 100 | > 100 | > 100 | > 100 | > 100 | > 100 | > 100 | > 100 | > 100
4 | Cc1c2c(n3c(nc4ccccc43)c1C#N)N(c1ccc(F)cc1)CC2 | > 100 | > 100 | > 100 | > 100 | > 100 | > 100 | > 100 | > 100 | > 100 | > 100
5 | CC(C)N(C(C)C)S(=O)(=O)CC12CCC(C/C1=N\O)C2 (stereo not drawn) | > 100 | > 100 | > 100 | > 100 | > 100 | > 100 | > 100 | > 100 | > 100 | > 100
6 | CCOC(=O)c1c2ccccc2n2c(=O)n(-c3ccc(OC)cc3)nnc12 | > 80.7 | > 62.4 | > 100 | > 100 | > 100 | > 100 | > 63.9 | > 79.9 | > 31.6 | > 100
7 | COc1ccc(C[C@@H](C(=O)N[C@@H](C)C(N)=O)N(C)C(=O)[C@@H]2CCCN2C(=O)[C@H](CC(C)C)NC(=O)C(C)NC(=O)OCc2ccccc2)cc1 (stereo partly drawn) (Cbz-[ξA]LP[NMeY](Me)A-NH2) | > 100 | > 100 | > 100 | > 100 | > 100 | > 100 | > 100 | > 100 | > 100 | > 100
8 | O=c1ccn(C/C=C/c2ccccc2)c(=S)n1C/C=C/c1ccccc1 | > 100 | 62.9 | 39.4 | > 100 | > 100 | > 100 | > 100 | > 100 | > 100 | > 100
9 | O=C(Nc1ccccc1)OCCN=c1c2ccccc2ccc2ccccc12 | 34.1 | 50.4 | 44.9 | 79.6 | 29.1 | 60.9 | > 100 | 62.7 | 69.9 | 59.1
10 | CSC12c3cc(C)n(-c4ccc(I)cc4)c3CC(C)(C)CN1C(=O)C2Oc1ccccc1 (stereo not drawn) | > 100 | > 100 | > 100 | > 100 | > 100 | > 100 | > 100 | > 100 | > 100 | > 100
11 | COc1ccc(/C=C2/SC(=Nc3ccccc3)N(NC(=O)Cc3ccccc3)C2=O)cc1 | > 100 | > 100 | > 100 | > 100 | > 100 | > 100 | > 100 | > 100 | > 100 | > 100
12 | Cc1cc2c(cc1Cl)SC(NNCCO)=NS2(=O)=O | > 100 | > 100 | > 100 | > 100 | > 100 | > 100 | > 100 | > 100 | > 100 | > 100
13 | c1ccc2c(c1)CCN1CCc3ccccc3C1C2 (stereo not drawn) | > 100 | > 100 | > 100 | > 100 | > 100 | > 100 | > 100 | > 100 | > 100 | > 100
14 | O=S(=O)(O)c1c(Cl)c(Cl)c(O)c2ncccc12 | 67.3 | 31.7 | 4.75 | 30.5 | 45 | 39.8 | 25.8 | 44.1 | 47.2 | 25.5
15 | Cc1cn(C2CC(O)C(Cn3nncc3Cn3cnc4c(N)ncnc43)O2)c(=O)[nH]c1=O (stereo not drawn) | > 100 | > 100 | > 100 | > 100 | > 100 | > 100 | > 100 | > 100 | > 100 | 
